Key:
[1] = system: Capan-1 cells (BRCA2-deficient); assay: Cell proliferation assay (CellTiter-Glo), Capan-1; type: cell-based; settings: for IC50: Homo sapiens, CAPAN-1, light or radiation study, 10 days incubation
Experimental: (§1) To assess the cytotoxicity of test compounds on BRCA-deficient cells using a CellTiter-Glo assay. MX-1 cells (BRCA1-deficient) and Capan-1 cells (BRCA2-deficient) were seeded in 96-well plates at densities that allowed linear growth for 10 days, and adhered overnight at 37 °C in a humidified atmosphere of 5% CO2. Cells were treated in their recommended growth medium containing varying concentrations of test compounds. […] After 10 days of incubation, CellTiter-Glo Reagent (Promega, Madison, WI, USA) was added to the plates, which continued to be incubated for 30 min at room temperature. Chemiluminescence values were recorded by a multiplate reader, and IC50 values were calculated using GraphPad Prism 8.0 software.

PARP = PARP inhibitor potency; cited from earlier work
[2] = system: MX-1 cells (BRCA1-deficient); assay: Cell proliferation assay (CellTiter-Glo), MX-1; type: cell-based; settings: for IC50: Homo sapiens, MX1, light or radiation study, 10 days incubation
Experimental: as §1

[3] = system: poly (ADP-ribose) (PAR) polymerization in HeLa cells; assay: Cellular PARylation assay (H2O2-induced PAR polymerization); type: cell-based; settings: for IC50: Homo sapiens, 18 h compound, 500 μM H2O2, read-out: Inhibit Polymerization of PAR IC50
Experimental: The cellular PARylation assay evaluated the ability of test compounds to inhibit polymerization of PAR. Hela cells were seeded in 96-well plates (10,000 cells/well) in 200 μL of cell complete medium, and were allowed to adhere for 4 h at 37 °C in a humidified atmosphere of 5% CO2. The medium was then removed from the plates, and the cells were treated with varying concentrations of test compounds for 18 h. 100 μL serum-free medium with 500 μM H2O2 solution was added, and the plate was kept at 37 °C for 5 min. Next, cells were fixed for 20 min with prechilled methanol at −20 °C and were incubated with 60 μL Poly(ADP-ribose) monoclonal antibody (1:2000) (prepared at 1x PBS containing 0.05% Tween-20 with 1% bovine serum albumin) at 37 °C for 2 h, followed by incubation with 60 μL IRDye 800CW goat anti-mouse IgG (diluted to 1:5000) and DNA stain DRAQ5 (1:5000) (prepared at 1× PBS containing 0.05% Tween-20 with 1% bovine serum albumin) at 37 °C for 2 h. The fluorescent signal was normalized with the DRAQ5 signal, and IC50 values were calculated using GraphPad Prism 8.0 software.

[4] = Talazoparib UV stability assay (HPLC); type: physicochemical; settings: 2.63 mM in methanol, 365 nm, up to 10 min
Experimental: The irradiation times were 1 min, 2 min, 3 min, 4 min, 5 min, and 10 min. The irradiated solution was transferred to a volumetric flask and diluted to the same volume with methanol. Then HPLC analysis was performed to detect the compound peak area. […] California, CA, USA) using a mobile phase A (water) and mobile phase B (acetonitrile (ACN)) to elute. The gradient changed from 70% A to 30% A in 10 min, then continuing to elute with 30% A for 5 min. The flow rate was 1 mL/min, and the detection wavelength was 220 nm.

PARP-1 enzyme = molecular target: T1, PARP-1 enzyme (Homo sapiens, UniProt P09874); assay: PARP-1 enzyme inhibition assay (PARP-1 Chemiluminescent Assay Kit); type: biochemical
T1 construct: purchased BPS 80569
Experimental: A PARP-1 Chemiluminescent Assay Kit (Cat# 80569, BPS, San Diego, CA, USA) was used to detect the ability of compounds to inhibit PARP-1 enzyme activity. All experimental steps followed the operating manual. Firstly, each well was precoated with 25 μL 1× histone mixture that was diluted in PBS by incubation at 4 °C overnight. The wells were blocked by adding 100 μL of blocking buffer, then incubated at room temperature for 90 min. Then 12.5 μL of the prepared 1× PARP assay mixture and 1× activated DNA in 1× PARP buffer were added into each well of the assay plate, and 2.5 μL of compound or solvent control were added at varying concentrations. The reaction was initiated by the addition of 10 μL 1 ng/μL PARP-1 enzyme in 1× PARP buffer at room temperature for 60 min. Next, the reaction solution was added with 25 μL of diluted Streptavidin-HRP (1:50 in blocking buffer) to each well at room temperature for an additional 30 min. Finally, 25 μL of Horseradish Peroxidase (HRP) chemiluminescent substrate A and 25 μL of HRP chemiluminescent substrate B were mixed on ice, and the mixture was added by 50 μL per well. The luminescent signal was measured using a multi-function microplate reader, and IC50 values were calculated using GraphPad Prism 8.0 software.

[5] = UV cleavage test in culture medium DMEM in 96-well plate (HPLC); type: physicochemical; settings: 10 μM in DMEM, 365 nm, 3 min
Experimental: Therefore, we tested the Capan-1 cells that could tolerate a longer UV irradiation duration. […] We simulated the same cytotoxicity experimental conditions to evaluate the photolysis of 10 μΜ compound 3 (10 μM is the starting concentration of compound 3 in cytotoxicity experiments) in a 96-well plate.
Supplementary Materials: Design, Synthesis and In Vitro Evaluation of the […]
Jiaguo Li 1, 2, Dian Xiao 2, Lianqi Liu 2, Fei Xie 2, Wei Li 2, Wei Sun 1,*, Xiaohong Yang 1,*, and Xinbo Zhou 2,* […]
wavelength scanning; (B) Local UV/Vis absorption spectra with a wavelength range of 290-500 nm. Compound […]
Introduction of the PPG into the parent compound's molecular structure leads to increased light absorption around 365 nm. Wavelengths shorter than 300 nm is highly energetic and can easily damage tissues and cells. Therefore, 365 nm was considered as the optimal wavelength for deprotection.
Figure S2. UV-cleavage test on the Compound 3 in culture medium DMEM. Compound 3 were dissolved in DMEM medium containing 0.1 %DMSO and added to 96-well plates at a final concentration of 10 μM. After being irradiated for 1 min and 3 min at 365 nm respectively, the samples were analyzed by HPLC. The peak area is plotted against the irradiation time. […]

[6] = Phosphate-buffered saline stability of the photoactivatable prodrug (HPLC); type: physicochemical; settings: 20 μM, pH = 7.4 PBS with 10% DMSO, 37 °C, 48 h
Experimental: Twenty μM of the test compound in pH = 7.4 PBS, containing 10% DMSO, were transferred to 13 1 mL volumetric flasks in equal volumes, incubated at 37 °C. The volumetric flasks were taken out at 0 min, 5 min, 10 min, 15 min, 30 min, 1 h, 2 h, 4 h, 8 h, 12 h, 24 h, 48 h, and 7 days, and were frozen at −80 °C. The samples were thawed in sequence and diluted to the same volume with methanol. Then HPLC analysis was performed to detect the compound peak area. Samples were determined on an Agilent Eclipse Plus C18 column (4.6 × 150 mm, 5 μm particle size; California, CA, USA) using a mobile phase A (water) and mobile phase B (ACN) to elute. The gradient changed from 70% A to 30% A in 10 min, continuing to elute with 30% A for 5 min. The flow rate was 1 mL/min, and the detection wavelength was 220 nm.

[7] = UV cleavage test in methanol (HPLC); type: physicochemical; settings: 20 μM in methanol, 365 nm UV
Experimental: The compound was dissolved in methanol (20 μM), and the solution were irradiated at 365 nm by using an UV crosslinker. Every minute from 0 to 10 min, aliquot samples (200 μL) were determined on an Agilent Eclipse Plus C18 column (4.6 × 150 mm, 5 μm particle size) using mobile phase A (water) and mobile phase B (ACN) to elute. The gradient changed from 70% A to 30% A in 10 min, continuing to elute with 30% A for 5 min. The flow rate was 1 mL/min and the detection wavelength was 220 nm. The peak areas percentage of the compounds at each time point were plotted against the sampling time.

[8] = UV+, compound irradiated 20 min at 365 nm before addition to cells

T1 sequence (P09874 whole entry): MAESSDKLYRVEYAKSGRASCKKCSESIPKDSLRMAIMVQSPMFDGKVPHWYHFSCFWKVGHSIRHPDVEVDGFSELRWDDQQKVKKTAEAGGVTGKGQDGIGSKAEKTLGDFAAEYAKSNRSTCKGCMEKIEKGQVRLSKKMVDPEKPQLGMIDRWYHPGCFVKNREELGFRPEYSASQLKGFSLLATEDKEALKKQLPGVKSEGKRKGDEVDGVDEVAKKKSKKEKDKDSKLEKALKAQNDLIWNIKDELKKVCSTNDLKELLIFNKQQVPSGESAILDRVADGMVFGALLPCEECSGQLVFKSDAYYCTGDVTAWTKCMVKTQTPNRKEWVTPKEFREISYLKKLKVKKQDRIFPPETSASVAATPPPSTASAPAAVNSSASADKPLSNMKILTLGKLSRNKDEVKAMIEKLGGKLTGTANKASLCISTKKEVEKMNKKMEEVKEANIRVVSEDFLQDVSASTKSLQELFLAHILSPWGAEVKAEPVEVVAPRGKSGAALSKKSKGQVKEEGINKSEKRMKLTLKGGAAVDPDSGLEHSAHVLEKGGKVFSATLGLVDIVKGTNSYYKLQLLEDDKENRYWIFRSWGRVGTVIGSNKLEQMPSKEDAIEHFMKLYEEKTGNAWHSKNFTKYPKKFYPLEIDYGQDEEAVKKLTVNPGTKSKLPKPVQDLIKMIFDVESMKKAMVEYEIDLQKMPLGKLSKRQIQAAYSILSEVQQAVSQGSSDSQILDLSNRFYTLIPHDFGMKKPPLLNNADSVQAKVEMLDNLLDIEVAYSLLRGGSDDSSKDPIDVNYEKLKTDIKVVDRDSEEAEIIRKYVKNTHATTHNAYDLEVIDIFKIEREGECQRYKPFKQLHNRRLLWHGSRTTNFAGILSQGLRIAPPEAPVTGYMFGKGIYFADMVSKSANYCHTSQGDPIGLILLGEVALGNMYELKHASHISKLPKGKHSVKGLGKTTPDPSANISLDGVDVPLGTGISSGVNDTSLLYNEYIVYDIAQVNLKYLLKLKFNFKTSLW

IC50 (PARP-1 enzyme)	reduction of PARP-1 inhibitory activity versus Talazoparib (PARP-1 enzyme; ratio of IC50 values, compound 3 vs Talazoparib)	stability in PBS (HPLC peak area) [6]	SMILES	IC50 ([1]; 240 h, UV-, no irradiation)	IC50 (PARP)	IC50 ([2]; 240 h, UV-, no irradiation)	IC50 [3]	UV stability (HPLC peak area) [4]	IC50 ([1]; UV+, 365 nm irradiation of cells 3 min after 1 h incubation)	inhibitory activity on Capan-1 cells after UV irradiation versus non-irradiated group ([1]; UV 3 min vs no UV)	release after UV irradiation under cytotoxicity experimental conditions [5]	IC50 ([2]; UV+, 365 nm irradiation of cells 1 min after 1 h incubation)	inhibitory activity on MX-1 cells after UV irradiation versus non-irradiated group ([2]; UV 1 min vs no UV)	decrease of PARylation inhibitory activity versus Talazoparib ([3]; ratio of IC50 values)	irradiation time to complete release (photolysis) [7]	IC50 [1, 8]	IC50 [2, 8]
			Cn1ncnc1[C@H]1c2n[nH]c(=O)c3cc(F)cc(c23)N[C@@H]1c1ccc(F)cc1 [Talazoparib, reference compound]	3 nM	[…]	15 nM	[…]	no significant loss									
1920 nM	380 times	did not show significant changes	Cn1ncnc1[C@H]1c2nn(Cc3cc4c(cc3[N+](=O)[O-])OCO4)c(=O)c3cc(F)cc(c23)N[C@@H]1c1ccc(F)cc1 [compound 3, (8S,9R)-5-Fluoro-8-(4-fluorophenyl)-9-(1-methyl-1H-1,2,4-triazol-5-yl)-2-((6-nitrobenzo[d][1,3]dioxol-5-yl)methyl)-2,7,8,9-tetrahydro-3H pyrido[4,3,2-de]phthalazin-3-one]	863 nM		1870 nM	329 nM		92 nM	nine times higher	not released completely	577 nM	approximately three times higher	≥ 658 times	3 min		
			C[C@H](NC(=O)OC(C)(C)C)C(=O)OCc1cc2c(cc1[N+](=O)[O-])OCO2 [compound 6, (6-Nitrobenzo[d][1,3]dioxol-5-yl)methyl (tert-butoxycarbonyl)-L-alaninate]	> 10000 nM		> 10000 nM									≤ 20 min	> 10000 nM	> 10000 nM
